This is an account of results in US20040039554A1, “Iterative analysis of non-responding population in the design of pharmacogenetic studies” (priority 2000, published 2004).

The subject of test [1] is female patients with IBS (non-constipated). The test can be described thus: Relief of IBS symptoms in double-blind, placebo controlled clinical trials of alosetron, stratified by 5HTT genotype. The format is in vivo, human. The following applies: in each of the three 5HTT genotypes. An excerpt: FIG. 1 is a graph based on data collected from female patients enrolled in clinical trials of alosetron for the treatment of IBS. The study population was comprised of non-constipated individuals with IBS. The subjects were divided into 5HTT genotypes. Of the 219 subjects, 71(32.4%) were genotype del/del (deletion/deletion, alternatively denoted as “1/1”) 5HTT, 75 (34.2%) were genotype del/ins (deletion/insertion, alternatively denoted as “1/2”) 5HTT and 73 (33.3%) were genotype ins/ins (insert/insert, alternatively denoted as “2/2”) 5HTT. […] “Response” was defined as relief of IBS symptoms (abdominal pain and discomfort) during six weeks of a twelve week treatment study. Two hundred and nineteen subjects, received either alosetron (102 subjects) or matched placebo (117 subjects). The proportion of patients achieving response following treatment with alosetron was 68% (21/31) for del/del 5HTT, 64% (21/33) for del/ins 5HTT and 58% (22/38) for ins/ins 5HTT. The proportion of patients achieving response following treatment with placebo was 58% (23/40) for del/del 5HTT, 38% (16/42) for del/ins 5HTT and 34% (12/35) for ins/ins 5HTT. […]
The subjects' response to alosetron in the clinical trial setting was reviewed and correlated with genotype. […] The incidence of various other effects, including constipation, was also recorded. […]

The test system of test [2] is patients with Irritable Bowel Syndrome (IBS). The note with it: double blind, placebo controlled studies; cited from earlier work.

Structures can show the parent of a compound that is named as a salt.

Turning to `Cc1[nH]cnc1CN1CCc2c(c3ccccc3n2C)C1=O` [alosetron, Alosetron hydrochloride], in test [1], the “effectiveness compared with placebo in relieving IBS symptoms” value was “more effective than placebo”. In addition, in test [2], the “effect on pain and bowel function in patients with IBS” value is “reduce pain and improve bowel function”.
